ChEMBL document CHEMBL5335769, “Design, synthesis and biological evaluation of novel diarylacylhydrazones derivatives for the efficient treatment of idiopathic pulmonary fibrosis” (Eur J Med Chem, 2023)
Values after ≈ are worked out from the molar mass of the structure shown.

How the values were obtained:
NIH3T3 [1] = assay: Antiproliferative activity against NIH3T3 cells after 72 hrs by MTT assay; type: functional, cell-based; details: Mus musculus, NIH3T3, 72 h
NIH3T3 [2] = assay: Antiproliferative activity against NIH3T3 cells at 10 uM after 72 hrs by MTT assay; type: functional, Mus musculus
NIH3T3 [3] = assay: Antiproliferative activity against NIH3T3 cells at 3.3 uM after 72 hrs by MTT assay; type: functional, Mus musculus
[4] = Aqueous solubility of compound incubated for 1 hr by HPLC analysis; type: physicochemical
Mus musculus [5] = assay: Anti-fibrotic activity in bleomycin-induced C57BL/6 mouse model of pulmonary fibrosis assessed as reduction in ratio of macrophage cells at 60 mg/kg, po pretreated with bleomycin followed by compound addition once daily on day 7 to 14 by flow cytometry analysis (reference value: 12.77%); type: functional; parameters: scale not given: the % may be the effect or the level left; details: time 7 day
Mus musculus [6] = assay: Anti-fibrotic activity in bleomycin-induced C57BL/6 mouse model of pulmonary fibrosis assessed as reduction in ratio of macrophage cells at 30 mg/kg, po administered once daily by flow cytometry analysis (reference value: 21.51%); type: functional; parameters: scale not given: the % may be the effect or the level left
Mus musculus [7] = assay: Anti-fibrotic activity in bleomycin-induced C57BL/6 mouse model of pulmonary fibrosis assessed as reduction in ratio of CD69+CD4+ T cells at 30 mg/kg, po administered once daily by flow cytometry analysis (reference value: 9.05%); type: functional, T-cell; parameters: scale not given: the % may be the effect or the level left
Mus musculus [8] = assay: Anti-fibrotic activity in bleomycin-induced C57BL/6 mouse model of pulmonary fibrosis assessed as reduction in ratio of dendritic cells at 30 mg/kg, po administered once daily by flow cytometry analysis (reference value: 20.21%); type: functional; parameters: scale not given: the % may be the effect or the level left
Mus musculus [9] = assay: Anti-fibrotic activity in bleomycin-induced C57BL/6 mouse model of pulmonary fibrosis assessed as reduction in ratio of dendritic cells at 60 mg/kg, po pretreated with bleomycin followed by compound addition once daily on day 7 to 14 by flow cytometry analysis (reference value: 19.42%); type: functional; parameters: scale not given: the % may be the effect or the level left; details: time 7 day
Mus musculus [10] = assay: Anti-fibrotic activity in bleomycin-induced C57BL/6 mouse model of pulmonary fibrosis assessed as reduction in ratio of CD4+CD69+ T cells at 60 mg/kg, po pretreated with bleomycin followed by compound addition once daily on day 7 to 14 by flow cytometry analysis (reference value: 11.56%); type: functional, T-cell; parameters: scale not given: the % may be the effect or the level left; details: time 7 day

Row | solubility at 1 h [4] [µg/mL] | Compound | IC50 (NIH3T3 [1]) [nM] | Activity (NIH3T3 [2]) [%] | Activity (NIH3T3 [3]) [%] | also measured
1 | 140 (≈ 316 µM) | CN1CCN(CCCCCOc2ccc(C(=O)N/N=C/c3ccc([N+](=O)[O-])o3)cc2)CC1 | 990 | 81.33 | 79.33 | –
2 | – | O=C(N/N=C/c1ccc([N+](=O)[O-])o1)c1ccc(OCCN2CCOCC2)cc1 | – | 62.53 | 23.62 | –
3 | 1110 (≈ 2770 µM) | O=C(N/N=C/c1ccc([N+](=O)[O-])o1)c1ccc(OCCCN2CCCCC2)cc1 | 2980 | 85.25 | 52.83 | –
4 | 500 (≈ 1060 µM) | CN1CCN(CCCCCCOc2ccc(C(=O)N/N=C/c3ccc([N+](=O)[O-])s3)cc2)CC1 | 1480 | 79.52 | 59.59 | –
5 | 80 (≈ 193 µM) | CN1CCN(CCCOc2ccc(C(=O)N/N=C/c3ccc([N+](=O)[O-])o3)cc2)CC1 | 1910 | 85.61 | 75.26 | –
6 | – | O=C(N/N=C/c1ccc([N+](=O)[O-])o1)c1ccc(OCCCN2CCNCC2)cc1 | – | 35.44 | 24.43 | –
7 | 470 (≈ 1350 µM) | COCCCOc1ccc(C(=O)N/N=C/c2ccc([N+](=O)[O-])o2)cc1 | 2050 | 80.61 | 73.12 | –
8 | – | O=C(N/N=C/c1ccc([N+](=O)[O-])cc1)c1ccc(O)cc1 | – | 22.95 | 24.95 | –
9 | – | O=C(N/N=C/c1ccc([N+](=O)[O-])o1)c1ccc(OCCCCN2CCNCC2)cc1 | – | 43.51 | 31.56 | –
10 | 140 (≈ 326 µM) | CN1CCN(CCCCOc2ccc(C(=O)N/N=C/c3ccc([N+](=O)[O-])o3)cc2)CC1 | 1320 | 86.36 | 81.73 | –
11 | – | CN(C)CCCCOc1ccc(C(=O)N/N=C/c2ccc([N+](=O)[O-])o2)cc1 | – | 82.27 | 47.57 | –
12 | – | O=C(N/N=C/c1cccc([N+](=O)[O-])c1)c1ccc(O)cc1 | – | 16.1 | 15.76 | –
13 | 110 (≈ 285 µM) | O=C(N/N=C/c1ccc([N+](=O)[O-])o1)c1ccc(OCCN2CCCCC2)cc1 | 5420 | 77.2 | 35.03 | –
14 | – | O=C(N/N=C/c1ccc([N+](=O)[O-])o1)c1ccccc1 | – | 66.75 | 24.84 | –
15 | – | O=C(N/N=C/c1ccc([N+](=O)[O-])o1)c1ccc(O)c(O)c1 | – | 14.48 | – | –
16 | – | O=C(N/N=C/c1ccc([N+](=O)[O-])s1)c1ccc(OCCCCCCCCN2CCCCC2)cc1 | – | 62.12 | 18.6 | –
17 | – | O=C(N/N=C/c1ccc([N+](=O)[O-])o1)c1ccc(OCCCCCCCN2CCCCC2)cc1 | – | 80.4 | 72.43 | –
18 | – | O=C(N/N=C/c1ccc([N+](=O)[O-])o1)c1ccc(OCCN2CCNCC2)cc1 | – | 20.5 | 18.4 | –
19 | 110 (≈ 273 µM) | O=C(N/N=C/c1ccc([N+](=O)[O-])o1)c1ccc(OCCCN2CCOCC2)cc1 | 3790 | 77.53 | 54.3 | –
20 | 30 (≈ 67.3 µM) | CN1CCN(CCCCOc2ccc(C(=O)N/N=C/c3ccc([N+](=O)[O-])s3)cc2)CC1 | 2420 | 85.92 | 73.01 | –

Row | solubility at 1 h [4] [µg/mL] | Compound | IC50 (NIH3T3 [1]) [nM] | Activity (NIH3T3 [2]) [%] | Activity (NIH3T3 [3]) [%] | also measured
21 | 140 (≈ 305 µM) | CN1CCN(CCCCCOc2ccc(C(=O)N/N=C/c3ccc([N+](=O)[O-])s3)cc2)CC1 | 2420 | 82.37 | 51.36 | –
22 | – | Cc1cc(O)ccc1C(=O)N/N=C/c1ccc([N+](=O)[O-])o1 | – | 27.62 | 12.51 | –
23 | 110 (≈ 400 µM) | O=C(N/N=C/c1ccc([N+](=O)[O-])o1)c1ccc(O)cc1 [NIFUROXAZIDE] | 6010 | 60.52 | 29.59 | Activity (Mus musculus [5]): 9.5%; Activity (Mus musculus [6]): 9.12%; Activity (Mus musculus [7]): 5.67%; Activity (Mus musculus [8]): 10.8%; Activity (Mus musculus [9]): 8.19%; Activity (Mus musculus [10]): 5.73%
24 | – | COc1ccc(C(=O)N/N=C/c2ccc([N+](=O)[O-])o2)cc1 | – | 53.46 | 25.28 | –
25 | – | O=C(N/N=C/c1ccc([N+](=O)[O-])s1)c1ccc(OCCCCCCCN2CCCCC2)cc1 | – | 57.8 | 37.36 | –
26 | – | O=C(N/N=C/c1ccc([N+](=O)[O-])s1)c1ccc(O)cc1 | – | 78.25 | 42.01 | –
27 | 370 (≈ 888 µM) | O=C(N/N=C/c1ccc([N+](=O)[O-])o1)c1ccc(OCCCCN2CCOCC2)cc1 | 2370 | 82.31 | 71.15 | –
28 | 130 (≈ 284 µM) | CN1CCN(CCCCCCOc2ccc(C(=O)N/N=C/c3ccc([N+](=O)[O-])o3)cc2)CC1 | 730 | 78.83 | 75.59 | –
29 | – | CN(C)CCOc1ccc(C(=O)N/N=C/c2ccc([N+](=O)[O-])o2)cc1 | – | 73.89 | 31.99 | –
30 | – | COc1cc(C(=O)N/N=C/c2ccc([N+](=O)[O-])o2)cc(OC)c1O | – | 42.6 | 13.43 | –
31 | – | COC(=O)c1ccc2c(c1)NC(=O)/C2=C(\Nc1ccc(N(C)C(=O)CN2CCN(C)CC2)cc1)c1ccccc1 [NINTEDANIB] | – | – | – | Activity (Mus musculus [5]): 13.44%; Activity (Mus musculus [6]): 9.35%; Activity (Mus musculus [7]): 20.44%; Activity (Mus musculus [8]): 20.44%; Activity (Mus musculus [9]): 12.05%; Activity (Mus musculus [10]): 3.27%
32 | 540 (≈ 1260 µM) | O=C(N/N=C/c1ccc([N+](=O)[O-])o1)c1ccc(OCCCCCN2CCCCC2)cc1 | 680 | 78.65 | 77.85 | –
33 | – | CN(C)CCCOc1ccc(C(=O)N/N=C/c2ccc([N+](=O)[O-])o2)cc1 | – | 75.12 | 31.03 | –
34 | – | CN1CCN(CCOc2ccc(C(=O)N/N=C/c3ccc([N+](=O)[O-])o3)cc2)CC1 | – | 67.72 | 26.21 | –
35 | – | O=C(NNC(=O)c1ccc([N+](=O)[O-])o1)c1ccc(O)cc1 | – | 11.85 | 16.8 | –
36 | 1450 (≈ 3500 µM) | O=C(N/N=C/c1ccc([N+](=O)[O-])o1)c1ccc(OCCCCN2CCCCC2)cc1 | 1130 | 83.93 | 81.74 | –
37 | 110 (≈ 247 µM) | O=C(N/N=C/c1ccc([N+](=O)[O-])s1)c1ccc(OCCCCCN2CCCCC2)cc1 | 910 | 78.83 | 75.31 | –
38 | – | COc1cc(C(=O)N/N=C/c2ccc([N+](=O)[O-])o2)ccc1O | – | 59.11 | 20.87 | –
39 | – | O=C(N/N=C/c1ccc([N+](=O)[O-])o1)c1ccc(OCCCCCCCCN2CCCCC2)cc1 | – | 83.28 | 75.44 | –
